Measured values from PubChem BioAssay (NCI).
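In this assay, cells in 96-well plates receive the compound at five concentrations for 48 hours. Endpoints are linearly interpolated between the surrounding concentrations. At the GI50, growth is halved. TGI denotes the concentration required for complete inhibition of growth.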

Tests used:
Test in all cases: growth of human tumour cells (NCI), 48 h
786-0 renal = system: 786-0 renal
CCRF-CEM leukemia = system: CCRF-CEM leukemia
COLO 205 colon = system: COLO 205 colon
HCC-2998 colon = system: HCC-2998 colon
HL-60(TB) leukemia = system: HL-60(TB) leukemia
HOP-92 NSCLC = system: HOP-92 NSCLC
LOX IMVI melanoma = system: LOX IMVI melanoma
NCI-H460 lung = system: NCI-H460 lung
OVCAR-4 ovarian = system: OVCAR-4 ovarian
RXF 393 renal = system: RXF 393 renal

| SMILES | GI50 (786-0 renal) [µM] | TGI (786-0 renal) [µM] | GI50 (CCRF-CEM leukemia) [µM] | TGI (CCRF-CEM leukemia) [µM] | GI50 (COLO 205 colon) [µM] | TGI (COLO 205 colon) [µM] | GI50 (HCC-2998 colon) [µM] | TGI (HCC-2998 colon) [µM] | GI50 (HL-60(TB) leukemia) [µM] | TGI (HL-60(TB) leukemia) [µM] | GI50 (HOP-92 NSCLC) [µM] | TGI (HOP-92 NSCLC) [µM] | GI50 (LOX IMVI melanoma) [µM] | TGI (LOX IMVI melanoma) [µM] | GI50 (NCI-H460 lung) [µM] | TGI (NCI-H460 lung) [µM] | GI50 (OVCAR-4 ovarian) [µM] | TGI (OVCAR-4 ovarian) [µM] | GI50 (RXF 393 renal) [µM] | TGI (RXF 393 renal) [µM] |
| --- | --- | --- | --- | --- | --- | --- | --- | --- | --- | --- | --- | --- | --- | --- | --- | --- | --- | --- | --- | --- |
| NS(=O)(=O)c1ccc(-n2nc(-c3ccc(Br)cc3)ccc2=O)cc1 | > 10 | > 10 | > 10 | > 10 | > 10 | > 10 | > 10 | > 10 | > 10 | > 10 | > 10 | > 10 | > 10 | > 10 | > 10 | > 10 | > 10 | > 10 | > 10 | > 10 |
| COc1ccccc1NC(=O)c1ccc(/C=C/C(=O)c2nccn2C)cc1 | 0.542 | 1.34 | 0.669 | 8.01 | 0.552 | 1.29 | 0.487 | 0.912 | 0.547 | 1.41 | 0.673 | 5.01 | 0.278 | 0.605 | 0.572 | 1.52 | 0.74 | 5.67 | 0.42 | 0.857 |
| Cn1cc(C2=C(c3ccc(OC[C@@H](O)CO)cc3)C(=O)NC2=O)c2ccccc21 | > 25 | > 25 | > 25 | > 25 | > 25 | > 25 | > 25 | > 25 | > 25 | > 25 | > 25 | > 25 | > 25 | > 25 | > 25 | > 25 | > 25 | > 25 | 16.4 | > 25 |
| C[Si](C)(C)c1ccc(CC2(Cc3ccc([Si](C)(C)C)cc3)CCNC2)cc1 | – | 3.38 | – | 48.1 | – | 3.19 | – | 4.43 | – | > 100 | – | 3.18 | – | 3.19 | – | 3.73 | – | 4.52 | – | 3.14 |
| CCN1CCN(c2nc(NCCNc3ccnc4cc(Cl)ccc34)c3ccccc3n2)CC1 | 1.03 | 2.44 | 0.759 | 7.59 | 0.505 | 2.07 | 1.69 | 4.91 | 2.01 | 4.01 | 1.14 | 2.49 | 1.51 | 3.01 | 1.91 | 5.33 | 1.78 | 4.45 | 1.26 | 2.77 |
| O=C1NC(=O)C2C(=O)NC(=O)C1C2(c1ccccc1)c1ccc(Cl)cc1 (stereo not drawn) | – | > 100 | – | > 100 | – | > 100 | – | > 100 | – | > 100 | – | > 100 | – | > 100 | – | > 100 | – | > 100 | – | > 100 |
| COC(=O)c1c2c(c(C)[n+]([O-])c1C)C(=O)C=CC2=O | 2.06 | 4.51 | 0.0559 | 7.3 | 1.64 | 3.35 | 1.64 | 3.13 | 2.16 | 4.84 | 2.12 | 6.03 | 1.44 | 3.04 | 2.72 | 7.4 | 1.2 | 2.47 | 1.42 | 2.88 |
| O=C1CC[C@H]2CNC(=O)C[C@H]2C1 | – | > 100 | – | > 100 | – | > 100 | – | > 100 | – | > 100 | – | > 100 | – | > 100 | – | > 100 | – | > 100 | – | > 100 |
| CN(C)c1ccc2c(c1)oc(=O)c1ccccc12 | – | 26.5 | – | 27.9 | – | 24.7 | – | 28.8 | – | 20.3 | – | 30 | – | 18.7 | – | 58 | – | 28.2 | – | 19.3 |
| CC(=O)OCCc1cccnc1/C=N/O | – | > 100 | – | > 100 | – | > 100 | – | > 100 | – | > 100 | – | > 100 | – | > 100 | – | > 100 | – | > 100 | – | > 100 |
| Clc1ccc(Cc2nc3cc4ccccc4cc3[nH]2)cc1 | 8.99 | 43.2 | 2.21 | > 100 | 8.64 | > 100 | 15.8 | 89.5 | > 100 | > 100 | 19.5 | > 100 | 13.2 | > 100 | 2.22 | > 100 | 22.7 | > 100 | > 100 | > 100 |
| COc1cccc(-c2nc(-c3cnccn3)n(Cc3ccccc3)n2)c1 | – | > 100 | – | > 100 | – | > 100 | – | > 100 | – | > 100 | – | 81.1 | – | > 100 | – | > 100 | – | > 100 | – | 64 |
| Cn1c(-c2nonc2N)nc2cnccc21 | > 25 | > 25 | > 25 | > 25 | > 25 | > 25 | > 25 | > 25 | > 25 | > 25 | 8.73 | > 25 | > 25 | > 25 | > 25 | > 25 | > 25 | > 25 | > 20.6 | > 25 |
| OC(c1cccc(C(F)(F)F)c1)c1cnccc1NC1CCCCCC1 (stereo not drawn) | 1.62 | 3.08 | 2.56 | 7.98 | 1.73 | 3.37 | 1.74 | 3.36 | 2.13 | 4.47 | 1.32 | 3.88 | 1.59 | 2.98 | 1.84 | 3.57 | 1.83 | 6.33 | 1.44 | 2.89 |
| O=C(Cc1ccc(/C=C/C(=O)c2ncc[nH]2)cc1)Nc1ccc(Cl)cc1 | 1.13 | 4.77 | 1.08 | > 25 | 3.01 | 7.42 | 3.73 | 7.48 | 3.8 | 21.8 | 5.74 | 20.9 | 0.87 | 3.48 | 3.43 | > 25 | 4.11 | > 25 | 3.05 | 6.93 |
| Fc1ccc(-c2nn(-c3ccccc3)cc2-c2nc3ccccc3o2)cc1 | 15 | > 100 | 3.43 | > 100 | 15.1 | 30.5 | 7.98 | > 100 | 3.29 | 9.26 | 0.158 | 4.48 | 2.36 | 12.4 | 2.84 | 9.95 | 9.12 | > 100 | 31.6 | > 100 |
| CN=C1NC(=O)/C(=C/c2ccc3ncccc3c2)S1 | 10.7 | > 25 | 7.81 | > 25 | 7.45 | > 25 | > 20 | > 25 | 8.73 | > 25 | 8.03 | > 25 | 6.74 | > 25 | 7.79 | > 25 | 10.2 | > 25 | 8.08 | > 25 |
| O=C1Oc2cc3c(c4cccc1c24)OCN(c1ccc(Cl)cc1)C3 | – | 34.5 | – | 45.7 | – | > 100 | – | > 100 | – | > 55.5 | – | 49.1 | – | 17.7 | – | > 100 | – | 96.6 | – | > 84.2 |
| CC(C)(C)C1=NC(S)NC(CCC(=O)Nc2ccccc2[N+](=O)[O-])=C1 (stereo not drawn) | – | > 100 | – | > 100 | – | > 100 | – | > 100 | – | > 100 | – | > 100 | – | > 100 | – | > 100 | – | > 100 | – | > 100 |
| Cc1c(C(=O)/C=C/c2cccc3ccccc23)[n+](=O)c2ccccc2n1[O-] | – | 26.4 | – | 16.8 | – | 26.9 | – | 30.8 | – | 27.3 | – | 22.5 | – | 20.6 | – | 32.5 | – | 15.7 | – | 21.9 |
| Cc1c(Cl)cccc1Nc1ncccc1C(=O)O | 70.4 | > 100 | 64.2 | > 100 | 93.7 | > 100 | 63.3 | > 100 | > 100 | > 100 | 41.6 | > 100 | 54.9 | > 100 | 53 | > 100 | 90.6 | > 100 | > 100 | > 100 |
| N#Cc1cnn2ccn(C3OC(COC(=O)c4ccccc4)C(OC(=O)c4ccccc4)C3OC(=O)c3ccccc3)c12 (stereo not drawn) | – | > 21.5 | – | > 21.5 | – | > 21.5 | – | > 21.5 | – | > 21.5 | – | > 31.6 | – | > 31.6 | – | > 21.5 | – | > 21.5 | – | > 21.5 |
| COc1ccc(CNC(=O)COc2ccc(/C=N/Nc3nc4ccccc4s3)cc2)cc1 | 2.37 | 5.9 | > 100 | > 100 | – | – | 5.37 | > 100 | > 100 | > 100 | 1.4 | 4.41 | 3.04 | > 100 | 2.65 | 7.3 | 1.56 | 5 | 1.75 | 3.76 |
